Measured values: the supplement of paper PMC10307832

What was measured:
Assay in all cases: relative viability (nuclei count vs DMSO), 5 days (fraction); higher = more cells survive
[1] = tested on: EKVX
How it was run: (§1)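 Relative viability was taken as the ratio of nuclei in treated wells to nuclei in vehicle wells. Lung cancer cell lines in 1536-well plates received compounds by pin tool one day after seeding, either one drug alone or a fixed anchor-drug dose plus five library-drug doses (not always all listed) in √10 steps. Nuclei were counted on 4× images after 5 days of treatment, and values are medians of duplicate plates.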

[2] = tested on: HARA
How it was run: as §1

[3] = tested on: NCI-H647
How it was run: as §1

[4] = tested on: NCI-H1792
How it was run: as §1

[5] = tested on: NCI-H522
How it was run: as §1

[6] = tested on: NCI-H2405
How it was run: as §1

[7] = tested on: NCI-H358
How it was run: as §1

[8] = tested on: A-427
How it was run: as §1

[9] = tested on: NCI-H1755
How it was run: as §1

[10] = tested on: NCI-H1650
How it was run: as §1

[11] = tested on: LU99A
How it was run: as §1

[12] = tested on: HCC-44
How it was run: as §1

[13] = tested on: LK-2
How it was run: as §1

[14] = tested on: NCI-H460
How it was run: as §1

[15] = tested on: NCI-H1993
How it was run: as §1

[16] = tested on: RERF-LC-KJ
How it was run: as §1

[17] = tested on: NCI-H1734
How it was run: as §1

[18] = tested on: COR-L 105
How it was run: as §1

[19] = tested on: SW 900
How it was run: as §1

[20] = tested on: EPLC-272H
How it was run: as §1

[21] = tested on: EMC-BAC-2
How it was run: as §1

[22] = tested on: ChaGo-K-1
How it was run: as §1

[23] = tested on: NCI-H596
How it was run: as §1

SMILES: CN1CCN(CCOc2cc(OC3CCOCC3)c3c(Nc4c(Cl)ccc5c4OCO5)ncnc3c2)CC1 [Saracatinib] + O=C(c1cc(Cc2n[nH]c(=O)c3ccccc23)ccc1F)N1CCN(C(=O)C2CC2)CC1 [Olaparib] (partner 8 µM)
- relative viability ([1]; first compound 0.02 µM): 0.704
- relative viability ([1]; first compound 0.6325 µM): 0.91
- relative viability ([1]; first compound 2 µM): 0.38
- relative viability ([2]; first compound 0.02 µM): 0.891
- relative viability ([2]; first compound 0.2 µM): 0.631
- relative viability ([2]; first compound 0.6325 µM): 0.878
- relative viability ([2]; first compound 2 µM): 0.311
- relative viability ([3]; first compound 0.02 µM): 0.574
- relative viability ([3]; first compound 0.2 µM): 0.539
- relative viability ([3]; first compound 0.6325 µM): 0.406
- relative viability ([3]; first compound 2 µM): 0.364
- relative viability ([4]; first compound 0.02 µM): 0.537
- relative viability ([4]; first compound 0.2 µM): 0.352
- relative viability ([4]; first compound 0.6325 µM): 0.644
- relative viability ([4]; first compound 2 µM): 0.385
- relative viability ([5]; first compound 0.02 µM): 0.679
- relative viability ([5]; first compound 0.2 µM): 0.59
- relative viability ([5]; first compound 0.6325 µM): 0.572
- relative viability ([5]; first compound 2 µM): 0.534
- relative viability ([6]; first compound 0.02 µM): 0.873
- relative viability ([6]; first compound 0.2 µM): 0.84
- relative viability ([6]; first compound 0.6325 µM): 0.673
- relative viability ([6]; first compound 2 µM): 0.595
- relative viability ([7]; first compound 0.02 µM): 0.527
- relative viability ([7]; first compound 0.2 µM): 0.529
- relative viability ([7]; first compound 0.6325 µM): 0.272
- relative viability ([7]; first compound 2 µM): 0.324
- relative viability ([8]; first compound 0.02 µM): 0.733
- relative viability ([8]; first compound 0.2 µM): 0.689
- relative viability ([8]; first compound 0.6325 µM): 0.715
- relative viability ([8]; first compound 2 µM): 0.71
- relative viability ([9]; first compound 0.02 µM): 0.876
- relative viability ([9]; first compound 0.2 µM): 0.751
- relative viability ([9]; first compound 0.6325 µM): 0.872
- relative viability ([9]; first compound 2 µM): 0.786
- relative viability ([10]; first compound 0.02 µM): 0.784
- relative viability ([10]; first compound 0.2 µM): 0.636
- relative viability ([10]; first compound 0.6325 µM): 0.624
- relative viability ([10]; first compound 2 µM): 0.569
- relative viability ([11]; first compound 0.02 µM): 0.278
- relative viability ([11]; first compound 0.2 µM): 0.194
- relative viability ([11]; first compound 0.6325 µM): 0.282
- relative viability ([11]; first compound 2 µM): 0.256
- relative viability ([12]; first compound 0.02 µM): 0.979
- relative viability ([12]; first compound 0.2 µM): 0.863
- relative viability ([12]; first compound 0.6325 µM): 0.97
- relative viability ([12]; first compound 2 µM): 0.976
- relative viability ([13]; first compound 0.02 µM): 0.802
- relative viability ([13]; first compound 0.2 µM): 0.505
- relative viability ([13]; first compound 0.6325 µM): 0.437
- relative viability ([13]; first compound 2 µM): 0.388
- relative viability ([14]; first compound 0.02 µM): 0.416
- relative viability ([14]; first compound 0.2 µM): 0.285
- relative viability ([14]; first compound 0.6325 µM): 0.423
- relative viability ([14]; first compound 2 µM): 0.409
- relative viability ([15]; first compound 0.02 µM): 1.03
- relative viability ([15]; first compound 0.2 µM): 1.02
- relative viability ([15]; first compound 0.6325 µM): 1.01
- relative viability ([15]; first compound 2 µM): 0.989
- relative viability ([16]; first compound 0.02 µM): 1.09
- relative viability ([16]; first compound 0.2 µM): 0.841
- relative viability ([16]; first compound 0.6325 µM): 0.9
- relative viability ([16]; first compound 2 µM): 0.977
- relative viability ([17]; first compound 0.02 µM): 0.592
- relative viability ([17]; first compound 0.6325 µM): 0.515
- relative viability ([17]; first compound 2 µM): 0.547
- relative viability ([18]; first compound 0.02 µM): 0.594
- relative viability ([18]; first compound 0.2 µM): 0.617
- relative viability ([18]; first compound 0.6325 µM): 0.698
- relative viability ([18]; first compound 2 µM): 0.698
- relative viability ([19]; first compound 0.02 µM): 0.831
- relative viability ([19]; first compound 0.2 µM): 0.753
- relative viability ([19]; first compound 0.6325 µM): 0.784
- relative viability ([19]; first compound 2 µM): 0.643
- relative viability ([20]; first compound 0.02 µM): 0.946
- relative viability ([20]; first compound 0.2 µM): 0.714
- relative viability ([20]; first compound 0.6325 µM): 0.658
- relative viability ([20]; first compound 2 µM): 0.426
- relative viability ([21]; first compound 0.02 µM): 0.489
- relative viability ([21]; first compound 0.2 µM): 0.418
- relative viability ([21]; first compound 0.6325 µM): 0.562
- relative viability ([21]; first compound 2 µM): 0.474
- relative viability ([22]; first compound 0.02 µM): 0.423
- relative viability ([22]; first compound 0.2 µM): 0.28
- relative viability ([22]; first compound 0.6325 µM): 0.413
- relative viability ([22]; first compound 2 µM): 0.449
- relative viability ([23]; first compound 0.02 µM): 0.727
- relative viability ([23]; first compound 0.2 µM): 0.589
- relative viability ([23]; first compound 0.6325 µM): 0.684
- relative viability ([23]; first compound 2 µM): 0.546
